From patent US5574013A (Warner-Lambert Company, priority 1993, dated 1996)

Each compound was assayed against T1, CCK B (Mus musculus, UniProt P56481) (assay: CCK receptor binding screening test, displacement of tritiated-pentagastrin from mouse cerebral cortical membranes). Conditions: Ki by Cheng-Prusoff; 2 nM tritiated-pentagastrin; mouse cerebral cortex membranes; read-out: Binding Affinity CCK B.
T1 construct: from tissue; host or cells: cerebral cortex membranes of male CFLP mice
T1 sequence (P56481 1-453): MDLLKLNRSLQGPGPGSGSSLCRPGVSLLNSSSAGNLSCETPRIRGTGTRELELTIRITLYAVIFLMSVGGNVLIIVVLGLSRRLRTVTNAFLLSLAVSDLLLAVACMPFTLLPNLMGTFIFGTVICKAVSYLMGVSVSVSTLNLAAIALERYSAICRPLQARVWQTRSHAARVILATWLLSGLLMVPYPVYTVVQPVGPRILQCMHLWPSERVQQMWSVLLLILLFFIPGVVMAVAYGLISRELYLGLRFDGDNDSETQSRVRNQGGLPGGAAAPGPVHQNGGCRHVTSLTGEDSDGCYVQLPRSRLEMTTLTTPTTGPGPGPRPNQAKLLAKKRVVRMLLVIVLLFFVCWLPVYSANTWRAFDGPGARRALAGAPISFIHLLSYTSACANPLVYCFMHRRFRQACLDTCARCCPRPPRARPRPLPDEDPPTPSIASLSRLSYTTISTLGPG
Protocol: The biological activity of compounds of the present invention was evaluated employing an initial screening test which rapidly and accurately measured the binding of the tested compound to known CCK receptor sites. […] (See Hays et al, Neuropeptides 1:53-62, 1980; and Satuer et al, Science 208:1155-1156, 1980.
In this screening test, the cerebral cortices taken from male CFLP mice weighing between 30-40 g were dissected on ice, weighed, and homogenized in 10 volumes of 50 mM Tris-HCl buffer (pH 7.4 at 0°-4° C.). The resulting suspension was centrifuged, the supernate was discarded, and the pellet was washed by resuspension in Tris-HCl buffer followed by recentrifugation. The final pellet was resuspended in 20 volumes of […] Hepes buffer (pH 7.2 at 23° C.) containing 130 mM NaCl, […] KCl, […] MgCl2, […] EDTA, 5 mg/mL bovine albumin, and bacitracin (0.25 mg/mL).
In saturation studies, cerebral cortical membranes were incubated at 23° C. for 120 minutes in a final volume of 500 μL of Hepes incubation buffer (pH 7.2) together with 0.2-20 nM tritiated-pentagastrin (Amersham International, England).
In the displacement experiments, membranes were incubated with a single concentration (2 nM) of ligand, together with increasing concentrations ([…]) of competitive test compound. In each case, the nonspecific binding was defined as that persisting in the presence of the unlabeled octapeptide CCK26-33 (10^-6 M).
Following incubation, radioactivity bound to membranes was separated from that free in solution by rapid filtration through Whatman GF/B filters and washed three times with 4 mL of ice cold Tris-HCl buffer. Filters from samples incubated with tritiated-pentagastrin were placed in polyethylene vials with 4 mL of scintillation cocktail, and the radioactivity was estimated by liquid scintillation spectrometry (efficiency 47-52%).
The specific binding to CCK receptor sites was defined as the total bound tritiated-pentagastrin minus the amount of tritiated-pentagastrin bound in the presence of 10^-6 octapeptide, CCK26-33.
Saturation curves for specific tritiated-pentagastrin binding to mouse cortical membranes were analyzed by the methods of Scatchard (Ann. New York Acad. Sci. 51:660-672, 1949, and Hill (J. Physiol. 40:IV-VIII, 1910, to provide estimates for the maximum number of binding sites (Bmax) and the equilibrium dissociation constant (Ka).
In displacement experiments, inhibition curves were analyzed by either logit-log plots or the iterative curve fitting computer program ALLFIT (DeLean, Munson and Redbard, 1978) to provide estimates of the IC50 and nH (apparent Hill coefficient) values). (IC50 values were defined as the concentration of test compound required to produce 50% inhibition of specific binding.)
The inhibition constant (Ki) of the test compound was then calculated according to the Cheng-Prusoff equation: [formula] where [L] is the concentration of radiolabel and Ka is the equilibrium dissociation constant.
The Ki values for several representative compounds of the present invention are present in Table I.

| Structure (SMILES) | Ki |
| --- | --- |
| C[C@](Cc1c[nH]c2ccccc12)(NC(=O)OC1C2CC3CC(C2)CC1C3)C(=O)NCC(=O)OCc1ccccc1 (stereo partly drawn) [Example 3, Gycine, N-[2-methyl-N-[(tricyclo[3.3.1.1^3,7]dec-2-yloxy)carbonyl]-D-tryptophyl]-, phenylmethyl ester] | 0.0504 µM |
| COC(=O)CCCNC(=O)[C@@](C)(Cc1c[nH]c2ccccc12)NC(=O)OC1C2CC3CC(C2)CC1C3 (stereo partly drawn) [Example 1, Butanoic acid, 4-[[3-(1H-indol-3-yl)-2-methyl-1-oxo-2-[[(tricyclo[3.3.1.1^3,7]dec-2-yloxy)carbonyl]amino]propyl]amino]-, methyl ester (R)-] | 0.0821 µM |
| CSCC[C@H](NC(=O)[C@@](C)(Cc1c[nH]c2ccccc12)NC(=O)OC1C2CC3CC(C2)CC1C3)C(=O)O (stereo partly drawn) [Example 11, N-[α-methyl-N-[(tricyclo[3.3.1.1^3,7]dec-2-yloxy)carbonyl]-D-tryptophyl]-L-methionine] | 0.024 µM |
| C[C@](Cc1c[nH]c2ccccc12)(NC(=O)OC1C2CC3CC(C2)CC1C3)C(=O)NCCC(=O)O (stereo partly drawn) [Example 6, β-Alanine, N-[α-methyl-N-[(tricyclo[3.3.1.1^3,7]dec-2-yloxy)carbonyl]-D-tryptophyl]-] | 4.38 µM |
| C[C@](Cc1c[nH]c2ccccc12)(NC(=O)OC1C2CC3CC(C2)CC1C3)C(=O)NCCC(=O)OCc1ccccc1 (stereo partly drawn) [Example 7, Propanoic acid, 3-[(3-(1H-indol-3-yl)-2-methyl-1-oxo-2-[[(tricyclo[3.3.1.1^3,7]dec-2-yloxy)carbonyl]amino]propyl]amino]--, phenylmethyl ester (R)-] | 0.299 µM |
| CC(C)CC(CO)NC(=O)C(C)(Cc1c[nH]c2ccccc12)NC(=O)OC1C2CC3CC(C2)CC1C3 (stereo not drawn) [Example 8, Carbamic acid, [2-[[1-(hydroxymethyl)-3-methylbutyl]amino]-1-(1H-indol-3-ylmethyl)-1-methyl-2-oxoethyl]-, tricyclo[3.3.1.1^3,7]dec-2-yl ester, [R-(R*,S*)]-] | 0.292 µM |
| C[C@](Cc1c[nH]c2ccccc12)(NC(=O)OC1C2CC3CC(C2)CC1C3)C(=O)NCC(=O)O (stereo partly drawn) [Example 4] | 1.51 µM |
| CCC(C)C(CO)NC(=O)C(C)(Cc1c[nH]c2ccccc12)NC(=O)OC1C2CC3CC(C2)CC1C3 (stereo not drawn) [Example 9, Carbamic acid, [2-[[1-(hydroxymethyl)-2-methylbutyl]amino]-1-(1H-indol-3-ylmethyl)-1-methyl-2-oxoethyl]-, tricyclo[3.3.1.1^3,7]dec-2-yl ester, [1S-[1R*(S*), 2R*]]-] | 0.225 µM |
| COC(=O)CCNC(=O)[C@H](CCSC)NC(=O)[C@@](C)(Cc1c[nH]c2ccccc12)NC(=O)OC1C2CC3CC(C2)CC1C3 (stereo partly drawn) [Example 12] | 0.03 µM |
